Here are results for one compound from publication PMC12524789, “The Interplay Between CB2 and NMDA Receptors in Parkinson’s Disease” (International Journal of Molecular Sciences, 2025).

Each structure is given as a SMILES string.

The target in the experiment is T1, cannabinoid receptor 2 (CB2R) (Homo sapiens, UniProt P34972).
T1 construct: gene CNR2; SNAP-tagged human CB2R in HEK-293T cells
Nature of the experiment: HTRF competition binding against […] fluorophore-conjugated CM157 in HEK-293T cells; also cAMP and β-arrestin II recruitment. It counts as cell-based.

T1 sequence (P34972 whole entry): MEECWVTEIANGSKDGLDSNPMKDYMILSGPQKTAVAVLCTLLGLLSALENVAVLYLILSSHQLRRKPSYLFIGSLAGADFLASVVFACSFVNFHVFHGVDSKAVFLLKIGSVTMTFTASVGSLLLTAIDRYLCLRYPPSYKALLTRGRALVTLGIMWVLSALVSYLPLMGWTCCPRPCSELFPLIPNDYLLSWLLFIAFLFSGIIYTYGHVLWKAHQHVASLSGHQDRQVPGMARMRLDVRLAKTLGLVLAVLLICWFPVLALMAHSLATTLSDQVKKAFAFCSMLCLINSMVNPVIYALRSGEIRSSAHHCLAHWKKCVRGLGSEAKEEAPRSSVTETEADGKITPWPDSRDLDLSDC

For the compound `CCCC(C)(C)c1ccc2c(c1)OC(C)(C)[C@@H]1CC=C(C)C[C@@H]21` [JWH-133], the Ki came to 18 nM.
